One may read the IC50 as the point on the concentration scale where inhibition reaches its midpoint.

Where a name gives a salt, the structure may show the parent alone. Read-outs that look alike come from different tables or passages of the source.

The target of assay [1] is T1, Recombinant Human ENPP-1 Protein (Homo sapiens (Human), UniProt P22413). Kind of assay: ENPP1 Assay (TMP). Format: biochemical.
Method: Assay Buffer: 1 mM CaCl2, 0.2 mM ZnCl2, 50 mM Tris, pH 9.0
Enzyme: 1 ng/μL Recombinant Human ENPP-1 Protein (purified in-house)—Assay Cone.: 5 ng/well
A ten point serial dilution of drugs was prepared in 10× in assay buffer with the final assay concentrations starting at 10 μM, 3 μM, 1 μM, 0.3 μM . . . 0 μM. A dilution of DMSO was included as a control. The assay plate was set up as follows with each well in duplicate: 75 μL assay buffer+10 μL ENPP1 inhibitor or DMSO Dilutions+10 μL Substrate+5 μL Enzyme (5 ng). Both the enzyme and substrate were added to opposite sides of the well to ensure that there was no interaction until all wells had both components. The plate was then centrifuged gently for 10 seconds, followed by an incubation at 37° C. for 45 minutes. […] Data was analyzed using GraphPad Prism 8.0.
The target of assay [2] is Recombinant Human ENPP-2/Autotaxin (rhENPP-2) (Homo sapiens (Human), UniProt Q13822). The assay can be described thus: ENPP2 Assay. Format: biochemical. The conditions noted are these: substrate BPNPP, pH 8.5, 37° C. 10 minutes, absorbance at 400 nm. As for the experimental part: Assay Buffer: 50 mM Tris, 10 mM CaCl2, 5 mM MgCl2, 0.02% Brij-35 (v/v), pH 8.5
Substrate: 20 mM Bis(p-Nitrophenyl) Phosphate Sodium Salt (BPNPP) (Sigma, Catalog #N3002)
Enzyme: 0.01 ng/μL Recombinant Human ENPP-2/Autotaxin (rhENPP-2) (R&D Catalog #5255-EN)
96-well clear assay plates
0 μM. […] PF8380 was used as a positive control for the assay. Data was analyzed using GraphPad Prism 8.0.

Assay [3] concerns the target T1, Recombinant Human ENPP-1 Protein. It is filed as binding. The following applies: SYPRO Orange protein melt.
Method: Recombinant Human ENPP-1 Protein (Purified In-House)
Assay Buffer (1 mM CaCl2, 0.2 mM ZnCl2, 50 mM Tris, pH 9.0)
5000×SYPRO Orange (ThermoFisher cat #S6651)
Each drug was prepared as a 1 Ox solution in the assay buffer and SYPRO Orange was diluted to 10× concentration in water. Wells were set up in duplicate in a 384-well PCR plate as follows: 14 μL assay buffer, 2 μL ENPP1 Inhibitor or DMSO, 2 μL (0.5 μg) ENPP1 protein. Each well was mixed and incubated on ice for 5 minutes. Post incubation, 2 μL of SYPRO Orange was mixed into each well and followed by a gentle centrifugation. The protein melt reaction was run using ViiA7 software with temperatures beginning at 25° C. and increasing by 0.05° C./s to the maximum temperature of 99° C.

T1 sequence (P22413 whole entry, looked up): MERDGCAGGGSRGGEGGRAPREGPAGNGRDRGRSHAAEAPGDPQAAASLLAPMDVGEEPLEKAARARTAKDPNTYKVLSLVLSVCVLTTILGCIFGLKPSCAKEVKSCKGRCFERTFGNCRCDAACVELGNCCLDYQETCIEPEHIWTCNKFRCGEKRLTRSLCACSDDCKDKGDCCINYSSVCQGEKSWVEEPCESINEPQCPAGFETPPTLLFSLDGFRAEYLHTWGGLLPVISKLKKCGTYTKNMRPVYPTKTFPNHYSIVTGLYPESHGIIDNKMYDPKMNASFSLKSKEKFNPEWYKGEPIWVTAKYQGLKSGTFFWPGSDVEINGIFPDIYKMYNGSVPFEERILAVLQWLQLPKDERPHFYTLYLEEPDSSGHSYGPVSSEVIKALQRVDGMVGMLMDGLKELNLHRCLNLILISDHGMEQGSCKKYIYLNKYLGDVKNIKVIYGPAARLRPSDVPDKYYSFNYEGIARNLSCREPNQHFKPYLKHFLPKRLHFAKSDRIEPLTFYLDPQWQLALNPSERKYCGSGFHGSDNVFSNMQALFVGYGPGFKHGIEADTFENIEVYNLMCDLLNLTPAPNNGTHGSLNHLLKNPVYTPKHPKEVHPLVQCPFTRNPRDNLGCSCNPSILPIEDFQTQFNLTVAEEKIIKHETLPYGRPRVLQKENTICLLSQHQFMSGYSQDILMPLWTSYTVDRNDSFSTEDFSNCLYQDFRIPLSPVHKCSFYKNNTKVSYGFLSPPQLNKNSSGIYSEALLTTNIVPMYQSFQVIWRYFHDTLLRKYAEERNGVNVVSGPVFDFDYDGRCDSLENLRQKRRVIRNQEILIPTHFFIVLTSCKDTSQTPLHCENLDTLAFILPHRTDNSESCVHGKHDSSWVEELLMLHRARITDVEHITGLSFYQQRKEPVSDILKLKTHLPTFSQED

With `COc1cc2ncnc(N3CCN(S(N)(=O)=O)CC(F)(F)C3)c2cc1OC` [Compound 029, 4-(6,7-dimethoxyquinazolin-4-yl)-6,6-difluoro-1,4-diazepane-1-sulfonamide hydrochloride], the IC50 in assay [1] (read-out: IC50) amounted to 1.21 nM.
Take `COc1cc2ncc(C#N)c(N3CCCC(CCNS(N)(=O)=O)CC3)c2cc1OC` (racemic) [Compound 038]: the IC50 in assay [1] came out at 0.94 nM.
Take `COc1cc2ncnc(CCCCCNS(N)(=O)=O)c2cc1OC` [Compound 050]: the IC50 in assay [2] was above 1000 nM. In addition, the “Thermal Shift @10 uM (dTm (o C.))” value in assay [3] is recorded as “$$ ($$ <3o C.)”.
Regarding `COc1cc2ncnc(N3CCCN(S(N)(=O)=O)CC3)c2cc1OC.Cl` [Compound 015-HCl, 4-(6,7-dimethoxyquinazolin-4-yl)-1,4-diazepane-1-sulfonamide hydrochloride salt], the IC50 is 5.97 nM in assay [1] (hydrochloride salt, read-out: IC50) and above 1000 nM in assay [2]. In addition, the “Thermal Shift @10 uM (dTm (o C.))” value in assay [3] is on record as “$$$ ($$$ >3o C.)”.
Regarding `COc1cc2ncnc(N3CCCN(CCNS(N)(=O)=O)CC3)c2cc1OC.Cl` [Compound 063, (N-(2-(4-(6,7-dimethoxyquinazolin-4-yl)-1,4-diazepan-1-yl)ethyl)sulfamide hydrochloride], in assay [1] (read-out: IC50), the IC50 was found to be 68.1 nM.
On to `COc1cc2ncc(C#N)c(N3CCCC(NS(N)(=O)=O)CC3)c2cc1OC` (stereo not shown) [Compound 042, N-(1-(3-cyano-6,7-dimethoxyquinolin-4-yl)azepan-4-yl)sulfamoylamine], for which, in assay [1] (read-out: IC50), the IC50 is 40.5 nM.
As for `COc1cc2ncnc(N3CCCC(CCNS(N)(=O)=O)CC3)c2cc1OC` (stereo not shown) [Compound 060, N-(2-(1-(6,7-dimethoxyquinazolin-4-yl)azepan-4-yl)ethyl)sulfamide], the “Thermal Shift @10 uM (dTm (o C.))” value in assay [3] was “$$$ ($$$ >3o C.)”.
With `COc1cc2ncnc(N3CCCN(C(=O)CNS(N)(=O)=O)CC3)c2cc1OC.Cl` [Compound 064], in assay [3], the “Thermal Shift @10 uM (dTm (o C.))” value is recorded as “$$ ($$ <3o C.)”.
Still for that read-out and setting: the result for `COc1cc2ncnc(NCCCNS(N)(=O)=O)c2cc1OC` [Compound 055, N-(3-((6,7-dimethoxyquinazolin-4-yl)amino)propyl) sulfamide hydrochloride] reads “$$ ($$ <3o C.)”.
As to `COc1cc2c(N3CCCN(S(N)(=O)=O)CC3)ncnc2cc1-c1cn[nH]c1` [Compound 020, 4-(6-methoxy-7-(1H-pyrazol-4-yl)quinazolin-4-yl)-1,4-diazepane-1-sulfonamide], the IC50 in assay [1] (read-out: IC50) came out at 99.7 nM.
For the compound `COc1cc2ncnc(N3CC4CC(C3)N(S(N)(=O)=O)C4)c2cc1OC` (stereo not shown) [Compound 026, 3-(6,7-dimethoxyquinazolin-4-yl)-3,6-diazabicyclo[3.2.1]octane-6-sulfonamide hydrochloride], the IC50 in assay [1] (read-out: IC50) was determined as 118 nM.
In the case of `COc1cc2ncnc(SCCCCNS(N)(=O)=O)c2cc1OC` [Compound 058, N-(4-((6,7-dimethoxyquinazolin-4-yl)thio)butyl) sulfamide hydrochloride], the “Thermal Shift @10 uM (dTm (o C.))” value in assay [3] was “$$$ ($$$ >3o C.)”.
Turning to `COc1cc2ncnc(N3CCCN(CCNS(N)(=O)=O)CC3)c2cc1OC` [Compound 062], in assay [2], the IC50 was above 1000 nM. In addition, in assay [3], the “Thermal Shift @10 uM (dTm (o C.))” value was “$$ ($$ <3o C.)”.
For the compound `COc1cc2ncnc(N3CCCN(S(N)(=O)=O)CC3)c2cc1OC` [Compound 015-MES, 4-(6,7-dimethoxyquinazolin-4-yl)-1,4-diazepane-1-sulfonamide methanesulfonate], in assay [1] (methanesulfonate, read-out: IC50), the IC50 was found to be 6.38 nM.
As to `COc1cc2ncnc(N3CCCN(C(=O)CNS(N)(=O)=O)CC3)c2cc1OC` [Compound 065], the IC50 in assay [1] (read-out: IC50) is 7.74 nM; in assay [2] it was above 1000 nM. For the same compound, the “Thermal Shift @10 uM (dTm (o C.))” value in assay [3] is recorded as “$$$ ($$$ >3o C.)”.
For the compound `COc1cc2ncnc(N3CCCN(C(=O)CNS(N)(=O)=O)CC3)c2cc1OC.Cl` [Compound 064, (N-(2-(4-(6,7-dimethoxyquinazolin-4-yl)-1,4-diazepan-1-yl)-2-oxoethyl)sulfamide hydrochloride], the IC50 in assay [1] was determined as 72 nM.
Turning to `COc1cc2ncnc(-c3ccc(CNS(N)(=O)=O)nc3)c2cc1OC` [Compound 047, N-((5-(6,7-dimethoxyquinazolin-4-yl)pyridin-2-yl)methyl) sulfamide], the half-maximal inhibitory concentration (IC50) in assay [2] was above 1000 nM. Besides, the “Thermal Shift @10 uM (dTm (o C.))” value in assay [3] is listed as “$$ ($$ <3o C.)”.
In the case of `COc1cc2ncnc(N3CCCN(CCNS(N)(=O)=O)CC3)c2cc1OC.Cl` [Compound 063], the “Thermal Shift @10 uM (dTm (o C.))” value in assay [3] was “$$ ($$ <3o C.)”.
Turning to `COc1cc2ncnc(N3CCCC(CCNS(N)(=O)=O)CC3)c2cc1OC` (stereo not shown) [Compound 049], the IC50 in assay [2] was above 1000 nM. Also, the “Thermal Shift @10 uM (dTm (o C.))” value in assay [3] was “$$$ ($$$ >3o C.)”.
For the compound `COc1cc2ncnc(-c3ccc(NCCNS(N)(=O)=O)nc3)c2cc1OC.Cl` [Compound 048], in assay [2], the IC50 is above 1000 nM. Moreover, the “Thermal Shift @10 uM (dTm (o C.))” value in assay [3] is on record as “$$ ($$ <3o C.)”.
In the case of `COc1cc2ncnc(OCCCCNS(N)(=O)=O)c2cc1OC` [Compound 053], in assay [3], the “Thermal Shift @10 uM (dTm (o C.))” value is on record as “$$$ ($$$ >3o C.)”.
Consider `COc1cc2ncnc(OCCCCCNS(N)(=O)=O)c2cc1OC` [Compound 054], for which the “Thermal Shift @10 uM (dTm (o C.))” value in assay [3] is “$$ ($$ <3o C.)”.
Regarding `COc1ccc2ncnc(N3CCCN(S(N)(=O)=O)CC3)c2c1` [Compound 022, 4-(6-methoxyquinazolin-4-yl)-1,4-diazepane-1-sulfonamide], the IC50 in assay [1] (read-out: IC50) was 116 nM.
Turning to `COc1cc2ncnc(N(C)CCCCCNS(N)(=O)=O)c2cc1OC` [Compound 061, N-(5-((6,7-dimethoxyquinazolin-4-yl) (methyl)amino)pentyl) sulfamide], the “Thermal Shift @10 uM (dTm (o C.))” value in assay [3] was “$$ ($$ <3o C.)”.
For the compound `COc1cc2ncnc(N3CCCN(S(N)(=O)=O)CC3)c2cc1OC` [Compound 015, 4-(6,7-dimethoxyquinazolin-4-yl)-1,4-diazepane-1-sulfonamide], in assay [1] (read-out: IC50), the half-inhibitory concentration (IC50) is 32.4 nM.
Consider `COc1cc2ncnc(NCCCCCNS(N)(=O)=O)c2cc1OC` [Compound 057], for which the “Thermal Shift @10 uM (dTm (o C.))” value in assay [3] was “$$ ($$ <3o C.)”.
`COc1cc2ncnc(NCCCCNS(N)(=O)=O)c2cc1OC` [Compound 056]: the IC50 in assay [2] was above 1000 nM. In assay [3], the “Thermal Shift @10 uM (dTm (o C.))” value is given as “$$ ($$ <3o C.)”.

Values taken from patent publication US11591313B2, “Inhibitors of ectonucleotide pyrophosphatase/phosphodiesterase 1 (ENPP1) and methods of use thereof” (Stingray Therapeutics, Inc., priority 2020, dated 2023).
